Tests used:
PODANSg2158 = target: T1, PODANSg2158 (Podospora anserina, UniProt B2AM55); test: X-ray crystal structure, […] Å; format: binding; details: wild-type enzyme; FAD in each of four subunits; pH 6 crystals
T1 sequence (B2AM55 1-430): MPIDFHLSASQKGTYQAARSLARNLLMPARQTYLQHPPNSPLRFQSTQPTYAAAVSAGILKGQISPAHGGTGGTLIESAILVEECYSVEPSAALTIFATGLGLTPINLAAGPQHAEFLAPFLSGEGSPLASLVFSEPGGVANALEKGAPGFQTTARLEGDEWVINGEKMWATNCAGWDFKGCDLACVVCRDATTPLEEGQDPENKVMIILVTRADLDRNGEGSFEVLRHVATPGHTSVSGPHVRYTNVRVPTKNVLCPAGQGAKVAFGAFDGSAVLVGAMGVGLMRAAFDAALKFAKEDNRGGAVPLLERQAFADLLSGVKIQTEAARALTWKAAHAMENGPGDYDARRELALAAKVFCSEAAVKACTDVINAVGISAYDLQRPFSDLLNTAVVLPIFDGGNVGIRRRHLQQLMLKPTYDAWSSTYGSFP

Asp402 = Asp402 (UniProt position 402, CYPLFDGGNIG); test: kinetics; details: free enzyme; substrate nitroethane; cited from earlier work

Molecule	X-ray crystal structure, 2.0 Å (PODANSg2158)	pKa (Asp402)
Cc1cc2nc3c(=O)[nH]c(=O)nc-3n(C[C@H](O)[C@H](O)[C@H](O)COP(=O)(O)OP(=O)(O)OC[C@H]3O[C@@H](n4cnc5c(N)ncnc54)[C@H](O)[C@@H]3O)c2cc1C [FAD]	FAD could be clearly identified in each of the subunits.	–
Nitroalkane oxidase (NAO) (Fusarium oxysporum)	–	6.9
